This passage reports IC50 results from patent US20250163104A1, “MACROCYCLIC IMMUNOMODULATORS” (priority 2021, published 2025).

Where a SMILES comes first, the peptide text is derived from it. Bridges are numbered along the chain shown (N, C = ends). [ ]: non-standard residue; d: D form. The star is where a group is joined. Phe(4-COOH) = N[C@@H](Cc1ccc(C(=O)O)cc1)C(=O)O; Bip = N[C@@H](Cc1ccc(-c2ccccc2)cc1)C(=O)O; Cit = NC(=O)NCCC[C@H](N)C(=O)O; Carboxymethyl = O=C(O)C*; Orn = NCCC[C@H](N)C(=O)O; Dab = NCC[C@H](N)C(=O)O; Dap = NC[C@H](N)C(=O)O

T1 sequence (Q15116 25-288): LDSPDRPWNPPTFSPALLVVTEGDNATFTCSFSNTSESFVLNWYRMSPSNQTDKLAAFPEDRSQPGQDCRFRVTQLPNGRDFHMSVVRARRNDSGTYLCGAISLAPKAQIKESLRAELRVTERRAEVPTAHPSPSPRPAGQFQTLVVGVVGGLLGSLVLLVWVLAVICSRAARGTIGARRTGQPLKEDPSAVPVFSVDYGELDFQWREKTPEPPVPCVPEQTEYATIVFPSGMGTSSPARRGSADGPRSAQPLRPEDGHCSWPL

This assay concerns the target T1, human PD-1 / PD-L1-Ig binding on Jurkat cell line over-expressing human PD-1 (Jurkat-PD-1) (Homo sapiens, UniProt Q15116).
T1 construct: expressed in transfected cells; host or cells: Jurkat
The assay can be described thus: Jurkat-PD-1 Cell Binding High-Content Screening Assay (CBA). The format is cell-based. The settings on record: Jurkat-PD-1 cells, PE-labeled PD-L1-Ig 20 nM final; read-out: Jurkat HPD1_PDL1 IC50. In short, it runs like this:
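Binding of fluorescent PD-L1-Ig (phycoerythrin linked via the Ig tag, 20 nM final) to PD-1-overexpressing Jurkat cells was imaged after a 2 h, 37° C compound pretreatment and 1 hour ligand incubation.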
For `CC(C)C[C@H]1NC(=O)[C@H](CCCN)NC(=O)[C@H](CCCNC(N)=O)NC(=O)[C@H](Cc2ccc(-c3ccccc3)cc2)NC(=O)[C@H](C(C)C)NC(=O)[C@H](Cc2c[nH]c3ccccc23)NC(=O)[C@H](CC(=O)O)NC(=O)[C@H](Cc2ccc(C(=O)O)cc2)NC(=O)[C@H](Cc2ccc(OCC(=O)O)cc2)NC(=O)CSC[C@@H](C(=O)N[C@@H](C)C(N)=O)NC(=O)[C@H]([C@@H](C)O)NC(=O)[C@H](C(C)C)NC(=O)[C@H](Cc2ccc(O)cc2)NC(=O)[C@H](CCN)NC1=O` [Compound 1684] ({CH2CO}-Y(Carboxymethyl)[Phe(4-COOH)]DWV[Bip][Cit][Orn][dL][Dab]YVTCA-NH2; thioether N-14), the IC50 – broadly, the concentration that gives 50% inhibition – was 0.12 µM.

As to `CC(C)C[C@H]1NC(=O)[C@H](CCCN)NC(=O)[C@H](CCCNC(N)=O)NC(=O)[C@H](Cc2ccc(-c3ccccc3)cc2)NC(=O)[C@H](C(C)C)NC(=O)[C@H](Cc2c[nH]c3ccccc23)NC(=O)[C@H](CC(=O)O)NC(=O)[C@H](Cc2ccc(OCC(=O)O)cc2)NC(=O)[C@H](Cc2ccc(OCC(=O)O)cc2)NC(=O)CSC[C@@H](C(=O)N[C@@H](C)C(N)=O)NC(=O)[C@H]([C@@H](C)O)NC(=O)[C@H](C(C)C)NC(=O)[C@H](Cc2ccc(O)cc2)NC(=O)[C@H](CCN)NC1=O` [Compound 1685] ({CH2CO}-Y(Carboxymethyl)Y(Carboxymethyl)DWV[Bip][Cit][Orn][dL][Dab]YVTCA-NH2; thioether N-14), the IC50 came to 0.175 µM.

`CC(C)C[C@H]1NC(=O)[C@H](CCCN)NC(=O)[C@H](CCC(=O)O)NC(=O)[C@H](Cc2ccc(-c3ccccc3)cc2)NC(=O)[C@H](C(C)C)NC(=O)[C@H](Cc2c[nH]c3ccccc23)NC(=O)[C@H](CC(=O)O)NC(=O)[C@H](Cc2ccc(OCC(=O)O)cc2)NC(=O)[C@H](CN)NC(=O)CSC[C@@H](C(=O)N[C@@H](C)C(N)=O)NC(=O)[C@H]([C@@H](C)O)NC(=O)[C@H](C(C)C)NC(=O)[C@H](Cc2ccc(O)cc2)NC(=O)[C@H](CCN)NC1=O` [Compound 1686] ({CH2CO}-[Dap]Y(Carboxymethyl)DWV[Bip]E[Orn][dL][Dab]YVTCA-NH2; thioether N-14): the IC50 was 0.215 µM.

For the molecule `CC(C)C[C@H]1NC(=O)[C@H](CCCN)NC(=O)[C@H](CCC(=O)O)NC(=O)[C@H](Cc2ccc(-c3ccccc3)cc2)NC(=O)[C@H](C(C)C)NC(=O)[C@H](Cc2c[nH]c3ccccc23)NC(=O)[C@H](CC(=O)O)NC(=O)[C@H](Cc2ccc(C(=O)O)cc2)NC(=O)[C@H](Cc2ccc(OCC(=O)O)cc2)NC(=O)CSC[C@@H](C(=O)N[C@@H](C)C(N)=O)NC(=O)[C@H]([C@@H](C)O)NC(=O)[C@H](C(C)C)NC(=O)[C@H](Cc2ccc(O)cc2)NC(=O)[C@H](CCN)NC1=O` [Compound 1687] ({CH2CO}-Y(Carboxymethyl)[Phe(4-COOH)]DWV[Bip]E[Orn][dL][Dab]YVTCA-NH2; thioether N-14), the half-maximal inhibitory concentration (IC50) was 0.368 µM.

With `CC(C)C[C@H]1NC(=O)[C@H](CCCN)NC(=O)[C@H](CCC(=O)O)NC(=O)[C@H](Cc2ccc(-c3ccccc3)cc2)NC(=O)[C@H](C(C)C)NC(=O)[C@H](Cc2c[nH]c3ccccc23)NC(=O)[C@H](CC(=O)O)NC(=O)[C@H](Cc2ccc(OCC(=O)O)cc2)NC(=O)[C@H](Cc2ccc(OCC(=O)O)cc2)NC(=O)CSC[C@@H](C(=O)N[C@@H](C)C(N)=O)NC(=O)[C@H]([C@@H](C)O)NC(=O)[C@H](C(C)C)NC(=O)[C@H](Cc2ccc(O)cc2)NC(=O)[C@H](CCN)NC1=O` [Compound 1688] ({CH2CO}-Y(Carboxymethyl)Y(Carboxymethyl)DWV[Bip]E[Orn][dL][Dab]YVTCA-NH2; thioether N-14), the IC50 amounted to 0.633 µM.

With `CC(C)C[C@H]1NC(=O)[C@H](CCCN)NC(=O)[C@H](C(C)C)NC(=O)[C@H](Cc2ccc(-c3ccccc3)cc2)NC(=O)[C@H](C(C)C)NC(=O)[C@H](Cc2c[nH]c3ccccc23)NC(=O)[C@H](CC(=O)O)NC(=O)[C@H](Cc2ccc(C(=O)O)cc2)NC(=O)[C@H](Cc2ccncc2)NC(=O)CSC[C@@H](C(=O)N[C@@H](C)C(N)=O)NC(=O)[C@H]([C@@H](C)O)NC(=O)[C@H](C(C)C)NC(=O)[C@H](CC2CCCCC2)NC(=O)[C@H](CCN)NC1=O` [Compound 1689], the IC50 is 0.027 µM.

As for `CC(C)C[C@H]1NC(=O)[C@H](CCCN)NC(=O)[C@H](C(C)C)NC(=O)[C@H](Cc2ccc(-c3ccccc3)cc2)NC(=O)[C@H](C(C)C)NC(=O)[C@H](Cc2c[nH]c3ccccc23)NC(=O)[C@H](CC(=O)O)NC(=O)[C@H](Cc2ccc(OCC(=O)O)cc2)NC(=O)[C@H](Cc2ccc(OCC(=O)O)cc2)NC(=O)CSC[C@@H](C(=O)N[C@@H](C)C(N)=O)NC(=O)[C@H]([C@@H](C)O)NC(=O)[C@H](C(C)C)NC(=O)[C@H](CC2CCCCC2)NC(=O)[C@H](CCN)NC1=O` [Compound 1690], the IC50 stood at 0.0124 µM.

On to `CC(C)C[C@H]1NC(=O)[C@H](CCCN)NC(=O)[C@H](C(C)C)NC(=O)[C@H](Cc2ccc(-c3ccccc3)cc2)NC(=O)[C@H](C(C)C)NC(=O)[C@H](Cc2c[nH]c3ccccc23)NC(=O)[C@H](CC(=O)O)NC(=O)[C@H](Cc2ccc(C(=O)O)cc2)NC(=O)[C@H](Cc2ccc(OCC(=O)O)cc2)NC(=O)CSC[C@@H](C(=O)N[C@@H](C)C(N)=O)NC(=O)[C@H]([C@@H](C)O)NC(=O)[C@H](C(C)C)NC(=O)[C@H](CC2CCCCC2)NC(=O)[C@H](CCN)NC1=O` [Compound 1691], for which the IC50 was determined as 0.0328 µM.

As to `CCCC[C@H]1NC(=O)[C@H](CCCN)NC(=O)[C@H](C(C)C)NC(=O)[C@H](Cc2ccc(-c3ccccc3)cc2)NC(=O)[C@H](C(C)C)NC(=O)[C@H](Cc2c[nH]c3ccccc23)NC(=O)[C@H](CC(=O)O)NC(=O)[C@H](Cc2ccc(OCC(=O)O)cc2)NC(=O)[C@H](CN)NC(=O)CSC[C@@H](C(=O)N[C@@H](C)C(N)=O)NC(=O)[C@H]([C@@H](C)O)NC(=O)[C@H](C(C)C)NC(=O)[C@H](CC2CCCCC2)NC(=O)[C@H](CCN)NC1=O` [Compound 1692], the IC50 was determined as 0.0107 µM.

With `CCCC[C@H]1NC(=O)[C@H](CCCN)NC(=O)[C@H](C(C)C)NC(=O)[C@H](Cc2ccc(-c3ccccc3)cc2)NC(=O)[C@H](C(C)C)NC(=O)[C@H](Cc2c[nH]c3ccccc23)NC(=O)[C@H](CC(=O)O)NC(=O)[C@H](Cc2ccc(OCC(=O)O)cc2)NC(=O)[C@H](Cc2ccncc2)NC(=O)CSC[C@@H](C(=O)N[C@@H](C)C(N)=O)NC(=O)[C@H]([C@@H](C)O)NC(=O)[C@H](C(C)C)NC(=O)[C@H](CC2CCCCC2)NC(=O)[C@H](CCN)NC1=O` [Compound 1693], the IC50 came to 0.0091 µM.

Take `CCCC[C@H]1NC(=O)[C@H](CCCN)NC(=O)[C@H](C(C)C)NC(=O)[C@H](Cc2ccc(-c3ccccc3)cc2)NC(=O)[C@H](C(C)C)NC(=O)[C@H](Cc2c[nH]c3ccccc23)NC(=O)[C@H](CC(=O)O)NC(=O)[C@H](Cc2ccncc2)NC(=O)[C@H](Cc2ccc(OCC(=O)O)cc2)NC(=O)CSC[C@@H](C(=O)N[C@@H](C)C(N)=O)NC(=O)[C@H]([C@@H](C)O)NC(=O)[C@H](C(C)C)NC(=O)[C@H](CC2CCCCC2)NC(=O)[C@H](CCN)NC1=O` [Compound 1694]: the IC50 stood at 0.0345 µM.

`CCCC[C@H]1NC(=O)[C@H](CCCN)NC(=O)[C@H](C(C)C)NC(=O)[C@H](Cc2ccc(-c3ccccc3)cc2)NC(=O)[C@H](C(C)C)NC(=O)[C@H](Cc2c[nH]c3ccccc23)NC(=O)[C@H](CC(=O)O)NC(=O)[C@H](Cc2ccncc2)NC(=O)[C@H](CN)NC(=O)CSC[C@@H](C(=O)N[C@@H](C)C(N)=O)NC(=O)[C@H]([C@@H](C)O)NC(=O)[C@H](C(C)C)NC(=O)[C@H](CC2CCCCC2)NC(=O)[C@H](CCN)NC1=O` [Compound 1695]: the half-maximal inhibitory concentration (IC50) was determined as 0.0344 µM.
